# In the OligoGym collection:
# HELM strings list units from the 5' end as sugar, base in round brackets, then linkage (d deoxyribose, r ribose, m 2'-O-methyl, p phosphodiester). Strings are as the collection lists them, not checked against the first reports. ss, as = sense and antisense strand; [una] = unlocked nucleic acid; [fl2r] = 2'-fluoro
# Conditions: siRNA
# Note: test system not given here.
row,Substance,target mRNA knockdown [%]
1,RNA1{r(G)p.r(G)p.r(A)p.r(A)p.r(G)p.r(A)p.r(A)p.r(G)p.r(A)p.[fl2r](U)p.r(A)p.r(G)p.r(A)p.r(G)p.[fl2r](C)p.r(A)p.r(U)p.r(C)p.r(C)p.r(T)p.r(T)}|RNA2{r(G)p.r(G)p.r(A)p.[fl2r](U)p.r(G)p.r(C)p.r(U)p.r(C)p.[fl2r](U)p.r(A)p.r(U)p.r(C)p.r(U)p.r(U)p.r(C)p.r(U)p.r(U)p.r(C)p.r(C)p.r(T)p.r(T)}$$$RNA1{StrandType:ss}|RNA2{StrandType:as}$,37
2,RNA1{r(G)p.r(G)p.r(A)p.r(A)p.r(G)p.r(A)p.r(A)p.r(G)p.r(A)p.r(U)p.r(A)p.r(G)p.r(A)p.r(G)p.r(C)p.r(A)p.r(U)p.r(C)p.r(C)p.r(T)p.r(T)}|RNA2{r(G)p.r(G)p.r(A)p.r(U)p.r(G)p.r(C)p.r(U)p.r(C)p.[fl2r](U)p.r(A)p.r(U)p.r(C)p.r(U)p.r(U)p.r(C)p.r(U)p.r(U)p.r(C)p.r(C)p.r(T)p.r(T)}$$$RNA1{StrandType:ss}|RNA2{StrandType:as}$,37
3,RNA1{r(G)p.r(G)p.r(A)p.r(A)p.r(G)p.r(U)p.r(C)p.m(C)p.m(A)p.r(C)p.r(C)p.m(U)p.m(U)p.r(C)p.r(U)p.r(C)p.r(C)p.r(G)p.r(A)p.r(T)p.r(T)}|RNA2{r(U)p.r(C)p.r(G)p.r(G)p.r(A)p.r(G)p.r(A)p.r(A)p.r(G)p.r(G)p.m(U)p.r(G)p.r(G)p.r(A)p.r(C)p.r(U)p.r(U)p.r(C)p.r(C)p.r(T)p.r(T)}$$$RNA1{StrandType:ss}|RNA2{StrandType:as}$,51
4,RNA1{r(G)p.r(G)p.r(A)p.r(A)p.r(G)p.r(U)p.r(C)p.r(C)p.m(A)p.r(C)p.r(C)p.r(U)p.r(U)p.r(C)p.r(U)p.r(C)p.r(C)p.r(G)p.r(A)p.r(T)p.r(T)}|RNA2{r(U)p.r(C)p.r(G)p.r(G)p.r(A)p.r(G)p.r(A)p.r(A)p.r(G)p.r(G)p.m(U)p.r(G)p.r(G)p.r(A)p.r(C)p.r(U)p.r(U)p.r(C)p.r(C)p.r(T)p.r(T)}$$$RNA1{StrandType:ss}|RNA2{StrandType:as}$,54
5,RNA1{r(G)p.r(G)p.r(A)p.r(C)p.m(U)p.r(A)p.r(C)p.m(U)p.r(A)p.r(A)p.r(C)p.r(C)p.r(U)p.r(C)p.m(C)p.r(A)p.r(G)p.r(U)p.r(U)p.r(T)p.r(T)}|RNA2{r(A)p.r(A)p.r(C)p.m(U)p.r(G)p.r(G)p.r(A)p.r(G)p.r(G)p.r(U)p.m(U)p.r(A)p.r(G)p.m(U)p.r(A)p.r(G)p.r(U)p.r(C)p.r(C)p.r(T)p.r(T)}$$$RNA1{StrandType:ss}|RNA2{StrandType:as}$,69
6,RNA1{r(G)p.r(G)p.r(A)p.r(C)p.r(A)p.r(U)p.r(U)p.r(C)p.r(A)p.r(G)p.r(A)p.r(A)p.r(C)p.r(A)p.r(A)p.r(G)p.r(A)p.r(A)p.r(A)p.[una](U)p.[una](U)}|RNA2{[una](U)p.r(U)p.r(U)p.r(C)p.r(U)p.r(U)p.r(G)p.r(U)p.r(U)p.r(C)p.r(U)p.r(G)p.r(A)p.r(A)p.r(U)p.r(G)p.r(U)p.r(C)p.r(C)p.[una](U)p.[una](U)}$$$RNA1{StrandType:ss}|RNA2{StrandType:as}$,75
7,RNA1{r(G)p.r(G)p.r(A)p.r(C)p.r(A)p.r(U)p.r(U)p.r(C)p.r(A)p.r(G)p.r(A)p.r(A)p.r(C)p.r(A)p.r(A)p.r(G)p.r(A)p.r(A)p.r(A)p.[una](U)p.[una](U)}|RNA2{r(U)p.[una](U)p.r(U)p.r(C)p.r(U)p.r(U)p.r(G)p.r(U)p.r(U)p.r(C)p.r(U)p.r(G)p.r(A)p.r(A)p.r(U)p.r(G)p.r(U)p.r(C)p.r(C)p.[una](U)p.[una](U)}$$$RNA1{StrandType:ss}|RNA2{StrandType:as}$,36
8,RNA1{r(G)p.r(G)p.r(A)p.r(C)p.r(A)p.r(U)p.r(U)p.r(C)p.r(A)p.r(G)p.r(A)p.r(A)p.r(C)p.r(A)p.r(A)p.r(G)p.r(A)p.r(A)p.r(A)p.[una](U)p.[una](U)}|RNA2{r(U)p.r(U)p.[una](U)p.r(C)p.r(U)p.r(U)p.r(G)p.r(U)p.r(U)p.r(C)p.r(U)p.r(G)p.r(A)p.r(A)p.r(U)p.r(G)p.r(U)p.r(C)p.r(C)p.[una](U)p.[una](U)}$$$RNA1{StrandType:ss}|RNA2{StrandType:as}$,0
9,RNA1{r(G)p.r(G)p.r(A)p.r(C)p.r(A)p.r(U)p.r(U)p.r(C)p.r(A)p.r(G)p.r(A)p.r(A)p.r(C)p.r(A)p.r(A)p.r(G)p.r(A)p.r(A)p.r(A)p.[una](U)p.[una](U)}|RNA2{r(U)p.r(U)p.r(U)p.[una](C)p.r(U)p.r(U)p.r(G)p.r(U)p.r(U)p.r(C)p.r(U)p.r(G)p.r(A)p.r(A)p.r(U)p.r(G)p.r(U)p.r(C)p.r(C)p.[una](U)p.[una](U)}$$$RNA1{StrandType:ss}|RNA2{StrandType:as}$,50
10,RNA1{r(G)p.r(G)p.r(A)p.r(C)p.r(A)p.r(U)p.r(U)p.r(C)p.r(A)p.r(G)p.r(A)p.r(A)p.r(C)p.r(A)p.r(A)p.r(G)p.r(A)p.r(A)p.r(A)p.[una](U)p.[una](U)}|RNA2{r(U)p.r(U)p.r(U)p.r(C)p.[una](U)p.r(U)p.r(G)p.r(U)p.r(U)p.r(C)p.r(U)p.r(G)p.r(A)p.r(A)p.r(U)p.r(G)p.r(U)p.r(C)p.r(C)p.[una](U)p.[una](U)}$$$RNA1{StrandType:ss}|RNA2{StrandType:as}$,37
11,RNA1{r(G)p.r(G)p.r(A)p.r(C)p.r(A)p.r(U)p.r(U)p.r(C)p.r(A)p.r(G)p.r(A)p.r(A)p.r(C)p.r(A)p.r(A)p.r(G)p.r(A)p.r(A)p.r(A)p.[una](U)p.[una](U)}|RNA2{r(U)p.r(U)p.r(U)p.r(C)p.r(U)p.[una](U)p.r(G)p.r(U)p.r(U)p.r(C)p.r(U)p.r(G)p.r(A)p.r(A)p.r(U)p.r(G)p.r(U)p.r(C)p.r(C)p.[una](U)p.[una](U)}$$$RNA1{StrandType:ss}|RNA2{StrandType:as}$,57
12,RNA1{r(G)p.r(G)p.r(A)p.r(C)p.r(A)p.r(U)p.r(U)p.r(C)p.r(A)p.r(G)p.r(A)p.r(A)p.r(C)p.r(A)p.r(A)p.r(G)p.r(A)p.r(A)p.r(A)p.[una](U)p.[una](U)}|RNA2{r(U)p.r(U)p.r(U)p.r(C)p.r(U)p.r(U)p.[una](G)p.r(U)p.r(U)p.r(C)p.r(U)p.r(G)p.r(A)p.r(A)p.r(U)p.r(G)p.r(U)p.r(C)p.r(C)p.[una](U)p.[una](U)}$$$RNA1{StrandType:ss}|RNA2{StrandType:as}$,78
13,RNA1{r(G)p.r(G)p.r(A)p.r(C)p.r(A)p.r(U)p.r(U)p.r(C)p.r(A)p.r(G)p.r(A)p.r(A)p.r(C)p.r(A)p.r(A)p.r(G)p.r(A)p.r(A)p.r(A)p.[una](U)p.[una](U)}|RNA2{r(U)p.r(U)p.r(U)p.r(C)p.r(U)p.r(U)p.r(G)p.r(U)p.r(U)p.[una](C)p.r(U)p.r(G)p.r(A)p.r(A)p.r(U)p.r(G)p.r(U)p.r(C)p.r(C)p.[una](U)p.[una](U)}$$$RNA1{StrandType:ss}|RNA2{StrandType:as}$,17
14,RNA1{r(G)p.r(G)p.r(A)p.r(G)p.m(C)p.r(A)p.r(C)p.r(G)p.r(C)p.r(U)p.m(U)p.r(A)p.r(C)p.m(U)p.r(A)p.r(C)p.r(C)p.r(U)p.r(U)p.r(T)p.r(T)}|RNA2{r(A)p.r(A)p.r(G)p.r(G)p.m(U)p.r(A)p.r(G)p.m(U)p.r(A)p.r(A)p.r(G)p.r(C)p.r(G)p.m(U)p.r(G)p.r(C)p.r(U)p.r(C)p.r(C)p.r(T)p.r(T)}$$$RNA1{StrandType:ss}|RNA2{StrandType:as}$,68
15,RNA1{r(G)p.r(G)p.r(A)p.r(G)p.r(C)p.m(U)p.m(A)p.r(G)p.r(A)p.r(C)p.r(G)p.r(G)p.r(G)p.m(U)p.r(A)p.r(C)p.r(G)p.r(A)p.r(G)p.r(T)p.r(T)}|RNA2{r(C)p.r(U)p.r(C)p.r(G)p.r(U)p.r(A)p.r(C)p.r(C)p.r(C)p.r(G)p.r(U)p.r(C)p.m(U)p.r(A)p.r(G)p.r(C)p.r(U)p.r(C)p.r(C)p.r(T)p.r(T)}$$$RNA1{StrandType:ss}|RNA2{StrandType:as}$,81
16,RNA1{r(G)p.r(G)p.r(A)p.r(G)p.r(C)p.m(U)p.r(A)p.r(G)p.r(A)p.r(C)p.r(G)p.r(G)p.r(G)p.m(U)p.r(A)p.r(C)p.r(G)p.r(A)p.r(G)p.r(T)p.r(T)}|RNA2{r(C)p.r(U)p.r(C)p.r(G)p.m(U)p.r(A)p.r(C)p.r(C)p.r(C)p.r(G)p.r(U)p.r(C)p.m(U)p.r(A)p.r(G)p.r(C)p.r(U)p.r(C)p.r(C)p.r(T)p.r(T)}$$$RNA1{StrandType:ss}|RNA2{StrandType:as}$,82
17,RNA1{r(G)p.r(G)p.r(A)p.r(G)p.r(C)p.r(A)p.r(C)p.r(G)p.r(C)p.r(U)p.m(U)p.r(A)p.r(C)p.m(U)p.r(A)p.r(C)p.r(C)p.r(U)p.r(U)p.r(T)p.r(T)}|RNA2{r(A)p.r(A)p.r(G)p.r(G)p.m(U)p.r(A)p.r(G)p.m(U)p.r(A)p.r(A)p.r(G)p.r(C)p.r(G)p.r(U)p.r(G)p.r(C)p.r(U)p.r(C)p.r(C)p.r(T)p.r(T)}$$$RNA1{StrandType:ss}|RNA2{StrandType:as}$,69
18,RNA1{r(G)p.r(G)p.r(C)p.m(C)p.r(A)p.r(A)p.r(A)p.r(G)p.m(U)p.r(A)p.r(A)p.r(U)p.r(C)p.r(G)p.m(U)p.r(G)p.r(G)p.r(U)p.r(U)p.r(T)p.r(T)}|RNA2{r(A)p.r(A)p.r(C)p.m(C)p.r(A)p.r(C)p.r(G)p.r(A)p.r(U)p.m(U)p.r(A)p.r(C)p.r(U)p.r(U)p.m(U)p.r(G)p.r(G)p.r(C)p.r(C)p.r(T)p.r(T)}$$$RNA1{StrandType:ss}|RNA2{StrandType:as}$,86
19,RNA1{r(G)p.r(G)p.r(C)p.r(C)p.r(A)p.r(A)p.r(A)p.r(G)p.m(U)p.r(A)p.r(A)p.r(U)p.r(C)p.r(G)p.r(U)p.r(G)p.r(G)p.r(U)p.r(U)p.r(T)p.r(T)}|RNA2{r(A)p.r(A)p.r(C)p.r(C)p.r(A)p.r(C)p.r(G)p.r(A)p.r(U)p.m(U)p.r(A)p.r(C)p.r(U)p.r(U)p.r(U)p.r(G)p.r(G)p.r(C)p.r(C)p.r(T)p.r(T)}$$$RNA1{StrandType:ss}|RNA2{StrandType:as}$,85
20,RNA1{r(G)p.r(G)p.r(C)p.r(C)p.r(U)p.r(U)p.r(U)p.r(C)p.r(A)p.r(C)p.r(U)p.r(A)p.r(C)p.r(U)p.r(C)p.r(C)p.r(U)p.r(A)p.r(C)p.d(T)p.d(T)}|RNA2{r(G)p.r(U)p.r(A)p.r(G)p.r(G)p.r(A)p.r(G)p.r(U)p.r(A)p.r(G)p.r(U)p.r(G)p.r(A)p.r(A)p.r(A)p.r(G)p.r(G)p.r(C)p.r(C)p.d(T)p.d(T)}$$$RNA1{StrandType:ss}|RNA2{StrandType:as}$,36
